Results as given in patent publication US9250238B2, “Pathogen detection” (priority 2010, dated 2016).

Experiments:
Y. enterocolitica = assay: Capture on FOB-BSA micropatterned chips, darkfield and FFT; type: binding, Yersinia enterocolitica; conditions: NHS-activated codelink slide, 10^8 cfu/ml
peanut lectin = molecular target: T1, peanut lectin (Arachis hypogaea, UniProt P02872); assay: Flow immunocytometry of peanut lectin binding to lactose-conjugated microspheres
T1 construct: purchased Sigma (St. Louis, Mo.)
Description: Bishydrazide glycoconjugates can be directly attached onto surface-active substrates for the selective capture of lectins and subsequent binding immunoassays. For example, lactosebishydrazide 6 was attached onto NHS-activated latex microspheres in order to measure the binding affinity of peanut lectin by flow immunocytometry (Kd)) 50 nM), using a FITC-labeled secondary antibody for fluorescence detection (FIGS. 12A and 13). […] However, in some cases the use of carrier proteins such as BSA may be more convenient for surface functionalization by simple physisorption.
For flow cytometry, carboxylic acid functionalized microspheres were conjugated to lactose-bishydrazide 6 via standard EDC coupling for 16 hours at room temperature, followed by multiple washes with PBS. The lactose-conjugated microspheres were dispersed in PBS (1.2 mL) and split into several Eppendorf tubes, which were incubated with increasing concentrations of peanut lectin in the presence or absence of 100-fold excess lactose. After incubating for 2 hours at room temperature, tubes were rinsed and subjected to sequential incubation with anti-lectin rabbit IgG and anti-rabbit FITC IgG as described above. The microspheres were then analyzed for fluorescent immunolabeling using a flow cytometer (Cytomics F500, Beckman Coulter, 10^4 microspheres/sample). […]

Acinetobacter baumanii = assay: PathoChip detection sensitivity; type: binding; conditions: ligand conjugated to BSA
Mycobacterium smegmatis = assay: PathoChip detection sensitivity; type: binding; conditions: ligand conjugated to BSA
Staphylococcus aureus = assay: PathoChip detection sensitivity; type: binding; conditions: ligand conjugated to BSA
Shigella spp. = assay: PathoChip detection sensitivity; type: binding; conditions: ligand conjugated to BSA
Vibrio cholerae = assay: PathoChip detection sensitivity; type: binding; conditions: ligand conjugated to BSA
Chlamydia trachomatis = assay: PathoChip detection sensitivity; type: binding; conditions: ligand conjugated to BSA
Pseudomonas aeruginosa [1] = assay: PathoChip detection sensitivity; type: binding; conditions: ligand conjugated to BSA
Streptococcus pneumonaie = assay: PathoChip detection sensitivity; type: binding; conditions: ligand conjugated to BSA
Pseudomonas aeruginosa [2] = assay: Capture of Pseudomonas on glycan-patterned substrates, darkfield and FFT; type: binding
Description: A similar approach was used to generate photopatterned arrays of the pulmonary trisaccharide and 2′-fucosyllactose on BSA-coated substrates, using glycan-bishydrazide-ANB conjugates 16 and 17, respectively. These micropatterned substrates were exposed to the opportunistic pathogen Pseudomonas aeruginosa at 10^6-10^8 cfu/mL, then washed and imaged by optical darkfield microscopy to visualize patterns of glycan-immobilized bacteria in a label-free manner (FIGS. 15-17). […] Furthermore, only live Pseudomonas were captured by the trisaccharide ligands; exposing the bacteria to UV irradiation for 2 hours prior to their introduction resulted again in no observable pattern (FIG. 18). […]
Glycan-bishydrazide conjugates could also be patterned onto substrates by microcontact printing (μCP), a well-established “soft lithography” technique based on microfabricated polydimethylsiloxane (PDMS) stamps for the physical transfer of organic or biomolecular ligands, including glycans (Kumar and Whitesides, Appl. Phys. Lett. 1993, 63:2002-2004; Bernard et al., Adv. Mater. 2000, 12:1067-1070; Inerowicz et al., Langmuir 2002, 18:5263-5268; Godula et al., Angew. Chem., Int. Ed 2009, 48:4973-4976; Wendeln et al., Langmuir 2010, 26:4933-4940). […] The substrates were blocked then exposed for 1 hour to Pseudomonas at 10^2-10^8 cfu/mL, then evaluated for evidence of patterned pathogen capture (FIGS. 19, 19A). […]

T1 sequence (P02872 24-273): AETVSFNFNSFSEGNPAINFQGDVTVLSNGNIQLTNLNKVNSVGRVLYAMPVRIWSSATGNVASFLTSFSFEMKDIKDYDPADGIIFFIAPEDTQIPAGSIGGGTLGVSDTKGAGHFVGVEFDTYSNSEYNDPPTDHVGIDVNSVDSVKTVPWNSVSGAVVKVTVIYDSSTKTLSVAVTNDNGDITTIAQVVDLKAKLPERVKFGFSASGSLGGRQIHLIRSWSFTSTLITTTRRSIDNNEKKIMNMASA

CC(=O)N([O-])CCCCCNC(=O)CCC(=O)N([O-])CCCCCNC(=O)CCC(=O)N([O-])CCCCCN.[Fe+3] [FOB, ferrioxamine]
bacteria binding with ligand attached directly, no BSA linker (Y. enterocolitica): less bacteria binding onto the pattern than in the presence of BSA

NNC(=O)COCCOCCOCCOCCOCCOCCOCC(=O)NN[C@@H]1OC(CO)[C@@H](OC2OC(CO)[C@H](O)[C@H](O)[C@@H]2O)[C@H](O)C1O (stereo partly shown) [conjugate 6, Hexa(ethylene glycol)-linked lactose-bishydrazide conjugate]
Kd (peanut lectin; 6 attached to NHS-activated latex microspheres, FITC secondary antibody): 50 nM
increase of Kd in competition assay (peanut lectin; against 1 mM lactose): 10 fold

heparin
sensitivity, Acinetobacter baumanii (Acinetobacter baumanii): 1E6 cfu/mL
sensitivity, Mycobacterium smegmatis (Mycobacterium smegmatis): 1E6 cfu/mL
sensitivity, Staphylococcus aureus (Staphylococcus aureus): 1E6 cfu/mL
sensitivity, Shigella spp. (Shigella spp.): 1E6+ cfu/mL
sensitivity, Vibrio cholerae (Vibrio cholerae): 1E6+ cfu/mL
sensitivity, Chlamydia trachomatis (Chlamydia trachomatis): 1E3 cfu/mL
sensitivity, Chlamydia trachomatis (Chlamydia trachomatis; listed as Heparin): 10^3 cfu/mL
sensitivity, Pseudomonas aeruginosa (Pseudomonas aeruginosa [1]): 1E6 cfu/mL

Hemin
sensitivity, Staphylococcus aureus (Staphylococcus aureus): 1E3 cfu/mL
sensitivity, Vibrio cholerae (Vibrio cholerae): 1E6/1E6 cfu/mL
sensitivity, Streptococcus pneumonaie (Streptococcus pneumonaie): 1E5 cfu/mL
sensitivity, Pseudomonas aeruginosa (Pseudomonas aeruginosa [1]): 1E3 cfu/mL

Hexa(ethylene glycol)-Linked 2′-Fucosyllactose-Bishydrazide Conjugate [conjugate 8]
avidity of Pseudomonas cultures relative to pulmonary trisaccharide 7 (Pseudomonas aeruginosa [2]): much lower avidity
